What was measured:
Assay type in all cases: in vivo, human
[1] = Taste and smell of the compound alone
Description: A sucrose solution (4%) was prepared in water. Each of ligustrosidic acid and 2′-hydroxy ligustrosidic acid solutions of different concentrations was prepared in ethanol solution in water (50%). Ligustrosidic acid and 2′-hydroxy ligustrosidic acid were evaluated at 1 and 200 ppm, respectively. […] A sucrose solution (4%) was prepared in water. Each of verbascoside and isoverbascoside solutions of different concentrations was prepared in ethanol solution in water (50%). Verbascoside and isoverbascoside were evaluated at 1 and 200 ppm, respectively.

[2] = Enhancement of Luo Han Guo sweetness (flavor profile of Luo Han Guo solution with added substance); settings: Luo Han Guo solution (120 ppm), over the levels tested
Description: A Luo Han Guo (Biovittoria Ltd., New Zealand) solution was prepared in water (120 ppm). Ligustrosidic acid and 2′-hydroxy ligustrosidic acid solutions were prepared as above (EXAMPLE II). The flavor profile of the Luo Han Guo solution with added ligustrosidic acid and 2′-hydroxy ligustrosidic acid is reported in the following: The effect of botanical extract such as Chaenomeles speciosa leave extract on sweetness was examined. Solutions of Chaenomeles speciosa leave extract containing ligustrosidic acid (0.61%), 2′-hydroxy ligustrosidic acid (0.62%), verbascoside (0.69%) and isoverbascoside (0.21%) were prepared in ethanol solution in water (50%) to obtain a series of concentrations ranging from 1 to 1000 ppm. Solutions of sucrose (4%) and Luo Han Guo (120 ppm) were prepared as above (EXAMPLE II and III). In addition, solutions of fructose (3.4%), Reb A (GLG Life Tech Corporation, Canada) (90 ppm) and GSG (Glucosyl Steviol Glucosides, GLG Life Tech Corporation, Canada) (200 ppm) were also prepared in water. The Luo Han Guo solution (120 ppm) with the addition of various amount of Chaenomeles speciosa leave extract was evaluated. The flavor profile is as follows: A Luo Han Guo (Biovittoria Ltd., New Zealand) solution was prepared in water (120 ppm). Verbascoside and isoverbascoside solutions were prepared as above (EXAMPLE XIII). The flavor profile of the Luo Han Guo solution with added verbascoside and isoverbascoside is reported in the following: […]

[3] = Enhancement of sucrose sweetness (flavor profile of sucrose solution with added substance); settings: sucrose solution (4%); for overall effect when used with sucrose (summary in text): over the levels tested; for effect observed in sucrose solution: compound 5 ppm
Description: A sucrose solution (4%) was prepared in water. Each of ligustrosidic acid and 2′-hydroxy ligustrosidic acid solutions of different concentrations was prepared in ethanol solution in water (50%). Ligustrosidic acid and 2′-hydroxy ligustrosidic acid were evaluated at 1 and 200 ppm, respectively. […] Solutions of Chaenomeles speciosa leave extract containing ligustrosidic acid (0.61%), 2′-hydroxy ligustrosidic acid (0.62%), verbascoside (0.69%) and isoverbascoside (0.21%) were prepared in ethanol solution in water (50%) to obtain a series of concentrations ranging from 1 to 1000 ppm. Solutions of sucrose (4%) and Luo Han Guo (120 ppm) were prepared as above (EXAMPLE II and III). In addition, solutions of fructose (3.4%), Reb A (GLG Life Tech Corporation, Canada) (90 ppm) and GSG (Glucosyl Steviol Glucosides, GLG Life Tech Corporation, Canada) (200 ppm) were also prepared in water. The sucrose solution (4%) with the addition of various amount of Chaenomeles speciosa leave extract was evaluated. […] Each of verbascoside and isoverbascoside solutions of different concentrations was prepared in ethanol solution in water (50%). Verbascoside and isoverbascoside were evaluated at 1 and 200 ppm, respectively.

Compound	taste and smell of the compound itself ([1]; evaluated at 200 ppm)	overall effect when used with Luo Han Guo (summary in text) [2]	overall effect when used with sucrose (summary in text) [3]	taste and smell of the compound itself ([1]; evaluated at 1 ppm)	effect observed in sucrose solution [3]	further results
2′-hydroxy ligustrosidic acid	devoid of taste and smell	strong effect in sweetness enhancement	strong effect in sweetness enhancement	–	–	–
COC(=O)C1=COC(OC2OC(CO)C(O)C(O)C2O)C(=CC(=O)O)C1CC(=O)OCCc1ccc(O)cc1 (stereo in doubt) [Ligustrosidic Acid, [3-(carboxymethylene)-2-(β-D-glucopyranosyloxy)-3,4-dihydro-5-(methoxycarbonyl)]-2H-pyran-4-acetic acid-α-[2-(4-hydroxyphenyl)ethyl] ester]	–	–	–	devoid of taste and smell	–	overall effect when used with Luo Han Guo (summary in text) ([2]; listed as Ligustrosidic acid): particularly strong effect; overall effect when used with Luo Han Guo (summary in text) ([2]; listed as ligustrosidic acid): enhanced overall sweetness, body and mouthfeel; overall effect when used with sucrose (summary in text) ([3]; listed as Ligustrosidic acid): particularly strong effect; overall effect when used with sucrose (summary in text) ([3]; listed as ligustrosidic acid): enhanced overall sweetness, body and mouthfeel
C[C@@H]1O[C@@H](O[C@@H]2[C@@H](O)[C@H](OCCc3ccc(O)c(O)c3)O[C@H](COC(=O)/C=C/c3ccc(O)c(O)c3)[C@H]2O)[C@H](O)[C@H](O)[C@H]1O [Isoverbascoside, isoverbascoside]	devoid of taste and smell	enhanced overall mouthfeel and suppressed Luo Han Guo's lingering off-taste	enhanced overall mouthfeel	–	–	–
C[C@@H]1O[C@@H](O[C@@H]2[C@@H](O)[C@H](OCCc3ccc(O)c(O)c3)O[C@H](CO)[C@H]2OC(=O)/C=C/c2ccc(O)c(O)c2)[C@H](O)[C@H](O)[C@H]1O [Verbascoside, (E)-2-(3,4-dihydroxyphenyl)ethyl 3-O-(6-deoxy-α-L-mannopyranosyl)-4-[3-(3,4-dihydroxyphenyl)-2-propenoate]-β-D-Glucopyranoside]	–	particular effect in sweetness enhancement	particular effect in sweetness enhancement	devoid of taste and smell	–	–
C/C=C1/[C@H](O[C@@H]2O[C@H](CO)[C@@H](O)[C@H](O)[C@H]2O)OC=C(C(=O)OC)[C@H]1CC(=O)OCCc1ccc(O)cc1 [ligustroside]	–	–	–	–	Some mouthfeel, slight drying or slightly fruity effect	–
C/C=C1\C(OC2OC(CO)C(O)C(O)C2O)OC=C(C(=O)OCCc2ccc(O)c(O)c2)C1CC(=O)OCCc1ccc(O)c(O)c1 (stereo not shown) [multifloroside]	–	–	–	–	Some mouthfeel, slight drying or slightly fruity effect	–

From patent US20210177023A1, “COMPOUNDS FOR SWEETNESS ENHANCEMENT” (International Flavors & Fragrances Inc., priority 2019, published 2021)
